{"source": "patent US20250263441A1", "about": "(Metanovas Biotech Inc., priority 2024, published 2025)", "assay_type_in_all_cases": "cell-based", "key": {"[1]": {"test_system": "Mouse macrophage RAW264.7 cells", "assay": "NO concentration after treatment of LPS-stimulated RAW264.7 cells", "settings": "LPS 10 ng/ml, 24 hours, replicate experiments", "protocol": "(1) Mouse macrophage RAW264.7 cells were cultured in DMEM supplemented with 10% fetal bovine serum (FBS) and 1% penicillin and streptomycin (P/S) at 37° C. in a 5% CO2 incubator.\n(2) 5×10^4 mouse-derived RAW264.7 macrophages were placed in 12-well cell culture plates and cultured for 24 hours. Then, 20 μL of PBS (negative control), Dexamethasone (positive control), and the test peptide were added to the wells for incubation for 2 hours. Afterward, 10 ng/ml of lipopolysaccharide (LPS) was mixed with RAW264.7 cells and incubated for 24 hours.\n(3) The supernatant was collected, and NO and IL-6/IL-1ß expression levels were measured using a commercial kit."}, "[2]": {"test_system": "Propionibacterium acnes (ATCC: 6919)", "assay": "Inhibitory effect of AMP-33 on Propionibacterium acnes (viability, OD 630 nm)", "design": "Viability of Propionibacterium acnes: unit: %", "settings": "for Viability of Propionibacterium acnes: 48 hours, repeated experiments", "protocol": "(1) Propionibacterium acnes was inoculated into Wilkins Chalgren liquid medium and cultured overnight under anaerobic conditions at 37° C. (Labiophy HL-B fully automated anaerobic workstation).\n(2) 200 μL of the Wilkins Chalgren liquid culture medium and a predetermined concentration of the peptide AMP-33 were added to a 96-deep-well plate. Then, 10 μL of Propionibacterium acnes was inoculated (mix well before inoculation).\n(3) After 48 hours of cultivation under anaerobic conditions at 37° C., the turbidity of the bacterial solution was observed. Then, 100 μL of the solution was taken, and the OD at 630 nm was measured using the enzyme-linked immunosorbent assay (ELISA) reading plate (after multiple blows and mixing).\n(§1) [formula] • OD Measurement: OD value of the test peptide. • ODneg: OD value with no bacterial inoculation, containing only […] medium. • ODpos: OD value with bacterial inoculation and without inhibitors."}, "[3]": {"test_system": "Staphylococcus aureus (ATCC: 25913)", "assay": "Inhibitory effect of AMP-33 on Staphylococcus aureus (viability, OD 630 nm)", "settings": "for Viability of Staphylococcus aureus: 24 hours, repeated experiments", "protocol": "(§2) (1) Staphylococcus aureus and Escherichia coli were inoculated into LB liquid medium and cultured overnight under aerobic conditions at 37° C. and […] on a shaker.\n(§3) (2) 200 μL of LB liquid culture medium and a predetermined concentration of peptide AMP-33 were added to a 96-deep-well plate. Then, 10 μL of the Staphylococcus aureus/Escherichia coli solution was inoculated (mixed well before inoculation).\n(§4) (3) After incubating at […] for 24 hours on a shaking table at 37° C., the turbidity of the bacterial solution was observed. A volume of 100 μL of the solution was taken, and the OD at 630 nm was measured using an enzyme-linked immunosorbent assay (ELISA) reader (after multiple blows and mixing).\nas §1"}, "[4]": {"test_system": "Escherichia coli (ATCC: 25922)", "assay": "Inhibitory effect of AMP-33 on Escherichia coli (viability, OD 630 nm)", "settings": "for Viability of Escherichia coli: 24 hours, repeated experiments", "protocol": "as §2, §3, §4, §1"}, "Helicobacter pylori": {"test_system": "Helicobacter pylori", "assay": "Inhibitory effect of AMP-33 on Helicobacter pylori", "settings": "5 and 10 μg/mL, 48 hours", "protocol": "(1) Helicobacter pylori was cultured to the logarithmic phase. Then, 4.5 mL of the bacterial solution was centrifuged at 5,000 g for 6 minutes, and the organisms were resuspended in Wilkins-Chalgren medium. The concentration of the bacterial solution was adjusted to approximately 2× 10^5 CFU/mL using pre-configured McClure's turbidimetric tubes.\n(2) Helicobacter pylori was cultured in a microtiter plate (96 wells), and 50 μL of different AMP33 peptides were added (at concentrations of 5 and 10 μg/mL). Next, 100 μL of diluted Helicobacter pylori bacterial fluid was added, followed by 50 μL of medium until the final concentration reached 1×10^5 CFU/mL.\n(3) A blank control was provided with equal amounts of medium solution and bacterial solution as in the experimental group, with at least 3 replicates for each treatment group.\n(4) The 96-well plate was placed in a bacterial incubator at 37° C. and incubated at 150 rpm for 48 hours."}, "Staphylococcus aureus": {"test_system": "Staphylococcus aureus", "assay": "Minimum inhibitory concentration on Staphylococcus aureus (liquid culture)", "settings": "37° C., 24 to 48 hours", "protocol": "(§5) Primary screening of liquid culture: the peptides in Examples 1 to 2 were dissolved in pure water to a concentration of 100 μg/mL. Using a micropipette, 10 μL of the peptides were added to a new 96-well plate in order from left to right, starting from the second compartment. Positive and negative controls were established for use. The 96-well plates were arranged vertically, and the peptide concentrations in the control groups were the same as those of the antimicrobial peptides. The control groups included: pure water and bacteria, antimicrobial peptide FK13 and bacteria, antimicrobial peptide HPA3NT3 and bacteria, and ciprofloxacin and bacteria. An aseptic medium was used.\n(§6) If a 96-deep-well plate was used to culture bacteria, an additional 100 μL of sterile medium was added to all wells.\nStaphylococcus aureus was inoculated in LB medium with a normal oxygen concentration (21%) for 48 hours. Staphylococcus aureus clones were picked and incubated in LB medium at 37° C. with a normal oxygen concentration (21%) for an additional 48 hours. The bacterial concentration was measured and diluted to 107 CFU/mL with culture medium for use.\n(§7) The prepared fresh bacterial suspension was diluted to 105 CFU/mL and added to the 96-well plate with 90 μL of the bacterial suspension per well. The plate was incubated at 37° C. with a normal oxygen concentration for 24 to 48 hours (Propionibacterium acnes was cultured anaerobically at 37° C. for 24 to 48 hours in an anaerobic bag). The absorbance at 630 nm was measured using a microplate reader, and the degree of turbidity was observed by the naked eye.\n(§8) (iv) Repetition of Operations: The Operations in (iii) were Repeated Twice, and the Decision to Perform a Third Repetition was Based on the Reproducibility of the Experiment."}, "Escherichia coli": {"test_system": "Escherichia coli", "assay": "Minimum inhibitory concentration on Escherichia coli (liquid culture)", "settings": "37° C., 24 to 48 hours", "protocol": "as §5, §6\nE. coli was inoculated in LB medium with normal oxygen concentration (21%) for 48 hours. E. coli clones were picked and incubated in LB medium at 37° C. with normal oxygen concentration (21%) for an additional 48 hours. The bacterial concentration was measured and diluted to 107 CFU/mL with culture medium for use.\nas §7, §8"}}, "note": "Values joined by “and” are separate entries in the source; they are usually repeats but may differ in a detail not shown here. Equal values may be shown once."}
{"substance": "Example 2: LSKWLKKLGKLLAG (designated as AMP33)", "values": [{"measurement": "NO concentration", "setting": "[1]; AMP-33 2 μg/mL", "result": "12.70 µM and 13.54 µM and 13.37 µM"}, {"measurement": "NO concentration", "setting": "[1]; AMP-33 4 μg/mL", "result": "12.35 µM and 12.14 µM and 11.10 µM"}, {"measurement": "NO concentration", "setting": "[1]; AMP-33 8 μg/mL", "result": "10.26 µM and 10.75 µM and 11.10 µM"}, {"measurement": "NO concentration", "setting": "[1]; AMP-33 25 μg/mL", "result": "2.82 µM and 2.89 µM and 3.83 µM"}, {"measurement": "NO concentration", "setting": "[1]; AMP-33 50 μg/mL", "result": "1.27 µM and 1.33 µM and 1.60 µM"}, {"measurement": "NO concentration", "setting": "[1]; AMP-33 100 μg/mL", "result": "1.60 µM and 1.13 µM and 1.54 µM"}, {"measurement": "Viability of Propionibacterium acnes", "setting": "[2]; 1 μg/mL", "result": "94.82 and 113.75 and 94.03"}, {"measurement": "Viability of Propionibacterium acnes", "setting": "[2]; 2 μg/mL", "result": "79.37 and 65.48 and 68.87"}, {"measurement": "inhibition of Propionibacterium acnes", "setting": "[2]; 4 ppm", "result": "over 90%"}, {"measurement": "Viability of Staphylococcus aureus", "setting": "[3]; 1 μg/mL", "result": "117.78 and 116.41 and 116.45"}, {"measurement": "Viability of Staphylococcus aureus", "setting": "[3]; 2 μg/mL", "result": "121.60 and 104.84 and 102.77"}, {"measurement": "Viability of Staphylococcus aureus", "setting": "[3]; 4 μg/mL", "result": "88.75 and 109.74 and 132.77"}, {"measurement": "Viability of Staphylococcus aureus", "setting": "[3]; 8 μg/mL", "result": "98.53 and 99.19 and 97.03"}, {"measurement": "inhibition of Staphylococcus aureus", "setting": "[3]; 50 ppm", "result": "over 99%"}, {"measurement": "Viability of Escherichia coli", "setting": "[4]; 1 μg/mL", "result": "110.11 and 91.93 and 82.94"}, {"measurement": "Viability of Escherichia coli", "setting": "[4]; 2 μg/mL", "result": "89.71 and 90.4 and 98.53"}, {"measurement": "Viability of Escherichia coli", "setting": "[4]; 4 μg/mL", "result": "86.48 and 70.83 and 70.35"}, {"measurement": "Viability of Escherichia coli", "setting": "[4]; 8 μg/mL", "result": "78.87 and 50.46 and 73.2"}, {"measurement": "Viability of Escherichia coli", "setting": "[4]; 25 μg/mL", "result": "74.99 and 38.97 and 51.39"}, {"measurement": "inhibition of Escherichia coli", "setting": "[4]; 25 ppm", "result": "over 99%"}, {"measurement": "inhibitory activity against H. pylori", "setting": "Helicobacter pylori", "result": "approximately 100%"}, {"measurement": "Minimum inhibitory concentration on Staphylococcus aureus", "setting": "Staphylococcus aureus", "result": 12.5, "unit": "µg/mL"}, {"measurement": "Minimum inhibitory concentration on Escherichia coli", "setting": "Escherichia coli", "result": 50, "unit": "µg/mL"}]}
